Remaining activity data for four compounds are collected here from publication PMC7827406, “Structure–Activity Relationship (SAR) Study of Spautin-1 to Entail the Discovery of Novel NEK4 Inhibitors” (International Journal of Molecular Sciences, 2021).

Like-named read-outs stand apart in the source and are kept apart here.

Assay in all cases: biochemical
Holding throughout (parameters): Eurofins KinaseProfiler full panel at Km ATP, residual kinase activity (%) relative to DMSO

Experiment [1] concerns the target T1, PRP4(h) (Homo sapiens, UniProt Q13523).
T1 construct: gene PRP4K
Summed up: (§1)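 Radiometric kinase activity assays were run with ATP at Km and compounds at 10 µM, and remaining activity (%) was reported. A separate competitive binding screen measured DNA-tagged kinase displaced from immobilized active-site ligands by qPCR, giving percent kinase still bound at 10 µM compound in DMSO.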

For experiment [2], the target named is T2, MLK3(h) (Homo sapiens, UniProt Q16584).
T2 construct: gene MAP3K11
Put shortly:
as §1

The target of experiment [3] is VRK2(h) (Homo sapiens, UniProt Q86Y07). Summed up:
as §1

Experiment [4] has as its target T3, EphB4(h) (Homo sapiens, UniProt P54760).
T3 sequence (P54760 1-987): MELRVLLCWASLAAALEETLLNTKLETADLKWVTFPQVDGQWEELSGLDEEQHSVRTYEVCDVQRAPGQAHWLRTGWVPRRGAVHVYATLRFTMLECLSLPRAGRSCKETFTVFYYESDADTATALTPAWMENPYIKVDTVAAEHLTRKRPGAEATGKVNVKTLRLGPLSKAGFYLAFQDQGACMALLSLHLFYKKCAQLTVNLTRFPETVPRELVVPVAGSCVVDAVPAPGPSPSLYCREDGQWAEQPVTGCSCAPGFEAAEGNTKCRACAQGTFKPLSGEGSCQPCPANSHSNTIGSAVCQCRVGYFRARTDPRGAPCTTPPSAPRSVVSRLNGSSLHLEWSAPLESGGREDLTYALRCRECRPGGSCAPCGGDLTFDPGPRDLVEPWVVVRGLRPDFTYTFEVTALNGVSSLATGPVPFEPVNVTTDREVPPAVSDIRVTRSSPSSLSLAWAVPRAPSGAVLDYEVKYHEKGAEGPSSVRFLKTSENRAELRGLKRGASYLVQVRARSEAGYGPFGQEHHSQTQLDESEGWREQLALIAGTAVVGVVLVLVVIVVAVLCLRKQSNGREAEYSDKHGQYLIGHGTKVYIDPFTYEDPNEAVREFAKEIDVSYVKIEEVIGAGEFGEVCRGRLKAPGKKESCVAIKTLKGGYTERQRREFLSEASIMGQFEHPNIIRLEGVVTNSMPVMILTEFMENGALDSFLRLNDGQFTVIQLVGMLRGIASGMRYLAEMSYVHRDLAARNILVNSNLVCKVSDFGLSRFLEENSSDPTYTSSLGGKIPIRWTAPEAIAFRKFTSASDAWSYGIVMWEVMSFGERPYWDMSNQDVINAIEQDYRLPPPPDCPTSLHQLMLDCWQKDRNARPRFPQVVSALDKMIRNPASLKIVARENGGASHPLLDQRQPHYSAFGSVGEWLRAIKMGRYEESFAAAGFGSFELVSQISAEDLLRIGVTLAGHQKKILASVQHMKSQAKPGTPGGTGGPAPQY
Put shortly: as §1

Experiment [5] addresses HIPK1(h) (Homo sapiens, UniProt Q86Z02). Put shortly:
as §1

In experiment [6] the target is T4, CDK5/p25(h) (Homo sapiens, UniProt Q00535).
T4 construct: p25
Put shortly: as §1

In experiment [7] the target is EGFR(T790M)(h) (Homo sapiens, UniProt P00533, T790M). Summed up:
as §1

Experiment [8] addresses CDK14/cyclinY(h) (Homo sapiens, UniProt O94921). Summed up:
as §1

Experiment [9] addresses STK16(h) (Homo sapiens, UniProt O75716). Summed up:
as §1

For experiment [10], the target named is T5, MSSK1(h) (Homo sapiens, UniProt Q9UPE1).
T5 construct: gene SRPK3
Put shortly:
as §1

The target of experiment [11] is CDKL3(h) (Homo sapiens, UniProt Q8IVW4). Put shortly: as §1
The target in experiment [12] is CLK1(h) (Homo sapiens, UniProt P49759). Summed up: as §1
The target in experiment [13] is T6, Abl(Y253F)(h) (Homo sapiens, UniProt P00519, Y253F).
T6 construct: gene ABL1
Put shortly:
as §1

Experiment [14] concerns the target T7, MST4(h) (Homo sapiens, UniProt Q9P289).
T7 construct: gene STK26
Summed up:
as §1

The mark [15] stands for this setting: read-out: Residual activity (%) 5at.
[16] abbreviates: read-out: Residual activity (%) 5ay.
Setting [17] is: read-out: Residual activity (%) 5as.
Where [18] appears, read: read-out: Residual activity (%) Spautin-1 5aa.

T4 sequence (Q00535 whole entry): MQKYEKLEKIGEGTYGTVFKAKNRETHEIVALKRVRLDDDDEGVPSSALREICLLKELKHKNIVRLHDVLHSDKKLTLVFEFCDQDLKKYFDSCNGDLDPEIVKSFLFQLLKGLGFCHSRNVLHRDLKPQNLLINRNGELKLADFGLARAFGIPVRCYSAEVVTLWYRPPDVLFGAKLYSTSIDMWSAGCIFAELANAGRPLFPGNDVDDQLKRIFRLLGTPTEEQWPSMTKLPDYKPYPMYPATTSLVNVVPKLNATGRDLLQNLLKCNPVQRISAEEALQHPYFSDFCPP
T4 sequence (Q15078 whole entry partner): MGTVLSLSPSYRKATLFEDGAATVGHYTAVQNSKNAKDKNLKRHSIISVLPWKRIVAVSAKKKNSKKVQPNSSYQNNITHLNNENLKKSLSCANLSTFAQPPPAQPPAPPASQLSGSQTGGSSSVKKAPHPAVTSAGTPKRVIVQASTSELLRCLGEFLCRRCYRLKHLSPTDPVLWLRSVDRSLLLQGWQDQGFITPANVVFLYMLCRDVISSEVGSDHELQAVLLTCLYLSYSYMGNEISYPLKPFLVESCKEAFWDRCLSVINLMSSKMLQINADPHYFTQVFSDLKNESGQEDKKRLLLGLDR
Sequence of VRK2(h) (Q86Y07 whole entry): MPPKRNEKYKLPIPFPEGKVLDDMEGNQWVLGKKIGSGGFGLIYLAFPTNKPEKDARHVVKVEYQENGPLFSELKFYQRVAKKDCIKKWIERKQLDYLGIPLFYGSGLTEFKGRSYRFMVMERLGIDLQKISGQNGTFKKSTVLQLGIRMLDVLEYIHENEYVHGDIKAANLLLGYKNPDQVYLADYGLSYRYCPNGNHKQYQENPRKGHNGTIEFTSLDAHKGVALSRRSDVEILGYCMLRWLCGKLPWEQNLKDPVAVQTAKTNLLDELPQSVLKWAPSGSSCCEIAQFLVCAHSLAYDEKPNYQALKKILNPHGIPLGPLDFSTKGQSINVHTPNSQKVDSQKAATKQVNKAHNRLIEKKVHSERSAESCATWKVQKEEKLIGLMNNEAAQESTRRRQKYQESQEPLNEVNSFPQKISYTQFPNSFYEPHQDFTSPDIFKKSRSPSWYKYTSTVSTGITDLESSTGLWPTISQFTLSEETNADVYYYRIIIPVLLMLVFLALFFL
T7 sequence (Q9P289 whole entry): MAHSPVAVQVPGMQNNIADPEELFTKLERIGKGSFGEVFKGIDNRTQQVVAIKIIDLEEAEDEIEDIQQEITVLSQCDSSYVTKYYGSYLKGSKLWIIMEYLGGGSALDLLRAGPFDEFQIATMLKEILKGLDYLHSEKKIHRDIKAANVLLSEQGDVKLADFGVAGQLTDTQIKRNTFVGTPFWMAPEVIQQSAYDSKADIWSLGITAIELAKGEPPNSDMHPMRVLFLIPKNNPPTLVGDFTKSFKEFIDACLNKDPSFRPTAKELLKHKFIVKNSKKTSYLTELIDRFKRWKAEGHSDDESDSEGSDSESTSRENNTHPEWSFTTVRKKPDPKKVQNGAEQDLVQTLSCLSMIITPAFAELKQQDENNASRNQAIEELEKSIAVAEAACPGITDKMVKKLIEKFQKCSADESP
Sequence of CDKL3(h) (Q8IVW4 whole entry): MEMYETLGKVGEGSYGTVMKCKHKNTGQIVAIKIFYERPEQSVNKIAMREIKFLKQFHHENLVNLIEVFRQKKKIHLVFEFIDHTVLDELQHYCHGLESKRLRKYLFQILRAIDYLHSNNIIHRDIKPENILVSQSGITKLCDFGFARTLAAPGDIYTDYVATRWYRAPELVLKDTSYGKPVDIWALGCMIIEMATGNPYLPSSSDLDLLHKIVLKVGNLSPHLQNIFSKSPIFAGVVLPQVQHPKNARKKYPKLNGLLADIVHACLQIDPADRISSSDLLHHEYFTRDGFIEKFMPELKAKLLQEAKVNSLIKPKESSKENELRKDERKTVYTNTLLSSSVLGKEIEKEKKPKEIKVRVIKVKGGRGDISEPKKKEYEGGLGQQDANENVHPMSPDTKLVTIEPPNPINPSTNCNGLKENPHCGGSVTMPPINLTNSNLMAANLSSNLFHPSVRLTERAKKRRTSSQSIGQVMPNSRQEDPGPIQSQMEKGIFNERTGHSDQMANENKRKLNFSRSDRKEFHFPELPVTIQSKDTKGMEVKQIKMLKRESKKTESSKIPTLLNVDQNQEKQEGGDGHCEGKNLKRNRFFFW
Sequence of EGFR(T790M)(h) (P00533 whole entry T790M): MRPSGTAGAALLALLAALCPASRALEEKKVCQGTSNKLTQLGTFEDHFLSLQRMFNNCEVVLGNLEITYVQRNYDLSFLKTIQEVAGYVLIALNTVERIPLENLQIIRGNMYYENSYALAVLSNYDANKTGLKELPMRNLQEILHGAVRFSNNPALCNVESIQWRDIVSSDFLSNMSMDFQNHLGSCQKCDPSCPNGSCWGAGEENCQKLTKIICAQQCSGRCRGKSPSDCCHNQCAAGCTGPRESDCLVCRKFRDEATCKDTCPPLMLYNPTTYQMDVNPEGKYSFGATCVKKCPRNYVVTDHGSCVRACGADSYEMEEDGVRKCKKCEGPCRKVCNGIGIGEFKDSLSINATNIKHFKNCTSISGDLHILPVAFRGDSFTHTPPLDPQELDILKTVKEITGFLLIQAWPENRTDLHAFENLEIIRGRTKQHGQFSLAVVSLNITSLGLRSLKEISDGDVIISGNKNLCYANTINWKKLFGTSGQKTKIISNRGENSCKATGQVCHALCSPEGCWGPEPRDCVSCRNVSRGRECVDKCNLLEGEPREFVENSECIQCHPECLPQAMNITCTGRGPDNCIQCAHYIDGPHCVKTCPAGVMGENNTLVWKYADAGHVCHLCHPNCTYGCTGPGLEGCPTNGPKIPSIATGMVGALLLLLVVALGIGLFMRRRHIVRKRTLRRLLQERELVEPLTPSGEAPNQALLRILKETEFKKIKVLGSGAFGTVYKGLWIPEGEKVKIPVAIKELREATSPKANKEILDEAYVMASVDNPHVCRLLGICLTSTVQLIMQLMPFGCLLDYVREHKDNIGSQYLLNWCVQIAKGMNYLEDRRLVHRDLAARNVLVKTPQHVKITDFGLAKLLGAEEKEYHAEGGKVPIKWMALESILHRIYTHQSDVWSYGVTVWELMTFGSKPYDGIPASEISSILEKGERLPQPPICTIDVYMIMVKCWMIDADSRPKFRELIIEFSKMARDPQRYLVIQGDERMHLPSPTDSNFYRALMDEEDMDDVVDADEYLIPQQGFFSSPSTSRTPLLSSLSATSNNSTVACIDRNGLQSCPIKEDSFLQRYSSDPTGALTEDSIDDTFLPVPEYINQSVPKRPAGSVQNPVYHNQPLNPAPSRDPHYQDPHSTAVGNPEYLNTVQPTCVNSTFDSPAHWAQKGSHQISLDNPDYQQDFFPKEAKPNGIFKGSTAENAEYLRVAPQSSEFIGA
Sequence of CLK1(h) (P49759 whole entry): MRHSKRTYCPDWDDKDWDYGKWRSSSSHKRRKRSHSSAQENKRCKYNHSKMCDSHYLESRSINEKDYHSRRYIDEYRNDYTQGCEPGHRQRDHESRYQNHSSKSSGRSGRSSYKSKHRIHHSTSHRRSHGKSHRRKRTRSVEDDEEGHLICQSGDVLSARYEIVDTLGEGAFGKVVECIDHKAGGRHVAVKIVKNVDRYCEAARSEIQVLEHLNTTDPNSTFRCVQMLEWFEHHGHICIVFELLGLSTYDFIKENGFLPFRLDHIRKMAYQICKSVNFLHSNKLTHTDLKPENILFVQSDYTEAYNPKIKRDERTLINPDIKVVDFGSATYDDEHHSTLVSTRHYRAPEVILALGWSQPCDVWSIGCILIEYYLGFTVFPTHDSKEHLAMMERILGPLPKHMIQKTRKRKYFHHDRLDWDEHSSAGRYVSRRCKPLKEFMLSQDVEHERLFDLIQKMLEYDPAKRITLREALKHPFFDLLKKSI
Sequence of HIPK1(h) (Q86Z02 whole entry): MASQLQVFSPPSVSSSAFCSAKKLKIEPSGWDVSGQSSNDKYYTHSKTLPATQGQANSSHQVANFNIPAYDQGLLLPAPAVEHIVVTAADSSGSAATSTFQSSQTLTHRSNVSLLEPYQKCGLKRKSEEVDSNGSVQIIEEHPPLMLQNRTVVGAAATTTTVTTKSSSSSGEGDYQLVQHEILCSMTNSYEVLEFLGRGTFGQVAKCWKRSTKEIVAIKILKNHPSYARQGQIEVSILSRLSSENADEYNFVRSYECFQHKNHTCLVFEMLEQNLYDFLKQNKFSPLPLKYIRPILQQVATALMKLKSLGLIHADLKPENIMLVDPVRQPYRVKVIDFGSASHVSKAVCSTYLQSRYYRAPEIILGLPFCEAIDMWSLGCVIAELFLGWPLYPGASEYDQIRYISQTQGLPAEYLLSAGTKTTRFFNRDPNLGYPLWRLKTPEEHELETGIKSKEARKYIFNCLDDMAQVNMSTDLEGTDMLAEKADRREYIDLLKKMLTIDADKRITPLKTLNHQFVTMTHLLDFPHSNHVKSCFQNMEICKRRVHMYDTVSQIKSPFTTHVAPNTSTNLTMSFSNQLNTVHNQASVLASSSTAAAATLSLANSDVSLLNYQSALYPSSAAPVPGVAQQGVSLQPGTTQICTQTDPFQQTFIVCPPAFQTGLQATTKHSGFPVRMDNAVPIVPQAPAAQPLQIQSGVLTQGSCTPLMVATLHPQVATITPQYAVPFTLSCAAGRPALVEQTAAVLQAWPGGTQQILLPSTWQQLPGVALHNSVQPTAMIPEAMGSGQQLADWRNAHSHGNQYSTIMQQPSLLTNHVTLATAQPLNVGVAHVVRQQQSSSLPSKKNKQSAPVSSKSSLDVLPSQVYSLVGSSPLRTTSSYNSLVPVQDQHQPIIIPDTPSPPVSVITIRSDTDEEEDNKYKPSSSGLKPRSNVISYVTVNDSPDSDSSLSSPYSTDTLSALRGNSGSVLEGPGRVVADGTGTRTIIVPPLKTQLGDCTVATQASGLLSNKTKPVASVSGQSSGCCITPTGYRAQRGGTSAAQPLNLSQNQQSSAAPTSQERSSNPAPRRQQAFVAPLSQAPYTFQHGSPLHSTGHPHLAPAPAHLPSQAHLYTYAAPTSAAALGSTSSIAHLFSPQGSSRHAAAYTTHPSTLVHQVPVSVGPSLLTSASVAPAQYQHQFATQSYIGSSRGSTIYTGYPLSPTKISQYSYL

`Fc1ccc2ncnc(NCCc3ccc(Cl)cc3)c2c1` [5at, N-[2-(4-Chlorophenyl)Ethyl]-6-Fluoro-4-Quinazolinamine]: the remaining activity at 10 µM in experiment [1] (setting [15]) is 99%; in [2] (setting [15]), 114%; in [3] (setting [15]), 94%; in experiment [4] (setting [15]), 68%; in experiment [5] (setting [15]), 103%; in experiment [6] (setting [15]) it was 86%. For the same compound, the remaining activity at 10 µM came to 74% in experiment [7] (setting [15]); 109% in [8] (setting [15]); 78% in experiment [9] (setting [15]); 95% in [10] (setting [15]); 71% in experiment [11] (setting [15]); 28% in experiment [12] (setting [15]). For the same compound, the values for the remaining activity at 10 µM in [13] (setting [15]) and in [14] (setting [15]) were 71% and 72%, respectively.
`COc1ccc2ncnc(Nc3cccc(F)c3)c2c1` [5ay, N-(3-Fluorophenyl)-6-Methoxy-4-Quinazolinamine]: the remaining activity at 10 µM in experiment [1] (setting [16]) was determined as 100%; in [2] (setting [16]) it was 97%; in experiment [3] (setting [16]), 88%; in [4] (setting [16]), 63%; in experiment [5] (setting [16]), 78%; in experiment [6] (setting [16]) it was 80%. Also, the remaining activity at 10 µM in [7] (setting [16]) came out at 65%; in [8] (setting [16]), 93%; in [9] (setting [16]), 76%; in [10] (setting [16]), 81%; in [11] (setting [16]), 29%; in [12] (setting [16]) it was 14%. For the same compound, the figures for the remaining activity at 10 µM in [13] (setting [16]) and in experiment [14] (setting [16]) were 66% and 64%, respectively.
As for `Fc1ccc(CCNc2ncnc3ccc(F)cc23)cc1` [5as, 6-Fluoro-N-[2-(4-Fluorophenyl)Ethyl]-4-Quinazolinamine], the remaining activity at 10 µM in experiment [1] (setting [17]) worked out at 105%; in experiment [2] (setting [17]), 99%; in [3] (setting [17]), 99%; in experiment [4] (setting [17]), 59%; in [5] (setting [17]), 120%; in [6] (setting [17]), 89%. Besides, the remaining activity at 10 µM came to 87% in experiment [7] (setting [17]); 103% in [8] (setting [17]); 75% in [9] (setting [17]); 91% in experiment [10] (setting [17]); 65% in [11] (setting [17]); 28% in experiment [12] (setting [17]). For the same compound, the remaining activity at 10 µM in [13] (setting [17]) was determined as 91%; in experiment [14] (setting [17]), 81%.
On to `Fc1ccc(CNc2ncnc3ccc(F)cc23)cc1` [5aa, 6-Fluoro-N-(4-fluorobenzyl)-4-Quinazolinamine], for which the remaining activity at 10 µM in experiment [1] (setting [18]) amounted to 104%; in experiment [2] (setting [18]), 99%; in [3] (setting [18]), 91%; in experiment [4] (setting [18]) it was 68%; in experiment [5] (setting [18]), 94%; in [6] (setting [18]), 73%. Besides, the remaining activity at 10 µM in experiment [7] (setting [18]) was 90%; in [8] (setting [18]), 107%; in [9] (setting [18]), 88%; in [10] (setting [18]) it was 85%; in [11] (setting [18]), 77%; in experiment [12] (setting [18]), 23%. The remaining activity at 10 µM in experiment [13] (setting [18]) is 106%; in [14] (setting [18]), 58%.
